Source: patent US9527847B2, “Treatment of lupus, fibrotic conditions, and inflammatory myopathies and other disorders using PI3 kinase inhibitors” (INFINITY PHARMACEUTICALS, INC., priority 2012, dated 2016)
Several values for one entry are separate records, joined by “and”; a condition that tells them apart may be missing. Equal values may be shown once.

Test system: mouse EAE model
Assay: Experimental Autoimmune Encephalomyelitis (EAE) model, semi-therapeutic, 28 day
Type: in vivo
Conditions: for End % body weight +/− SD: Day 27 relative to Day −1; for End score +/− SD: Day 28; for Mean day of EAE onset: after immunization, mice which developed EAE; for Inflammatory foci +/− SD: per spinal cord section; for Demyelination (LFB) +/− SD: score per section
Protocol: EAE was induced in 60 mice using Hooke Kit™ MOG35-55/CFA Emulsion PTX (Hooke Laboratories, Lawrence Mass.), catalog number EK-0110, lot number 0104, per manufacturer's recommended protocol, except that pertussis toxin was diluted with phosphate buffered saline to achieve 1.4× and 1.3× solution (starting from the 1.5× solution in the kit). This was done to optimize disease severity for this particular study.
Mice were injected subcutaneously, at two sites in the back, with the emulsion component of the kit (containing MOG35-55). One site of injection was in the area of the upper back, approximately 1 cm caudal of the neck line. The second site was in the area of the lower back, approximately 2 cm cranial of the base of the tail. Injection volume was 0.1 mL at each site. Within 2 hours of the injection of emulsion, and then again 24 hours after the injection of emulsion, the pertussis toxin component of the kit was administered intraperitoneally. Volume of each injection was 0.1 mL.
Vehicle for Group 2 (FTY720) was water and 2% ethanol. Vehicle for all other groups was water, 0.5% CMC (low viscosity), and 0.05% Tween80. Mice were dosed at the same time every day, +/−1 hour. The last day of dosing was Day 27 after immunization.
Readouts were EAE scores and changes in body weight. Mice were scored daily from Day 7 to Day 28, and body weights were measured three times/week (Monday, Wednesday and Friday), starting on Day −1.
EAE was scored on scale 0 to 5: • 0 No obvious changes in motor functions of the mouse in comparison to non-immunized mice. When picked up by the tail, the tail has tension and is erect. Hind legs are usually spread apart. When the mouse is walking, there is no gait or head tilting. • 1 Limp tail. When the mouse is picked up by the tail, instead of being erect, the whole tail drapes over finger. • 2 Limp tail and weakness of hind legs. When mouse is picked up by tail, legs are not spread apart, but held closer together. When the mouse is observed walking, it has a clearly apparent wobbly walk. • 3 Limp tail and complete paralysis of hind legs (most common); or limp tail with paralysis of one front and one hind leg; or all of: severe head tilting, walking only along the edges of the cage, pushing against the cage wall, and spinning when picked up by the tail. • 4 Limp tail, complete hind leg and partial front leg paralysis. Mouse is minimally moving around the cage but appears alert and feeding Usually, euthanasia is recommended after the mouse scores level 4 for 2 days. When the mouse is euthanized because of severe paralysis, score of 5 is entered for that mouse for the rest of the experiment. • 5 Complete hind and complete front leg paralysis, no movement around the cage; or mouse is spontaneously rolling in the cage; or mouse is found dead due to paralysis.
At the end of the study 3 luxol fast blue (LFB) stained sections and 3 H&E sections, from lumbar, thoracic, and cervical spinal cord of all mice in Groups 1, 2, 3, and 6 and the 3 naïve mice were prepared and analyzed.
Inflammatory foci were counted in each H&E stained section. Each group of approximately 20 cells was counted as one focus. Foci larger than 20 cells were counted based on an estimate of how many foci of 20 cells were present.
The demyelination score represents an estimate of demyelinated area for each section as follows. For LFB stained slides, the demyelinated area was estimated based on intensity of blue staining of myelin. For H&E stained sections, demyelinated area was estimated by looking for interruption of normal structure—pallor and vacuolation consistent with edema and demyelination, and dilated axons. • 0—no demyelination (less than 5% demyelinated area) • 1—5 to 20% demyelinated area • 2—20 to 40% demyelinated area • 3—40 to 60% demyelinated area • 4—60 to 80% demyelinated area • 5—80 to 100% demyelinated area.
The number of apoptotic cells in each of the three H&E sections was determined.

C[C@H](Nc1ncnc2[nH]cnc12)c1cc2cccc(Cl)c2c(=O)n1-c1ccccc1 [Compound 292]
Apoptotic cells, average per section+/−SD (0.3 mg/kg QD p.o.): 1.7+/−0.9 | Demyelination score (H&E sections), average per section+/−SD (0.3 mg/kg QD p.o.): 1.5+/−0.5 | MMS +/− SD (0.3 mg/kg QD p.o.): 2.50+/−0.85 | Median Day of Onset (0.3 mg/kg QD p.o.): 11.5 days | End % body weight +/− SD (0.3 mg/kg QD p.o.): 96.1+/−11.8% | End score +/− SD (0.3 mg/kg QD p.o.): 1.60+/−1.02 | Mean day of EAE onset (0.3 mg/kg QD p.o.): 11.3 ± 0.4 days | Inflammatory foci +/− SD (0.3 mg/kg QD p.o.): 2.9+/−1.5 | Demyelination (LFB) +/− SD (0.3 mg/kg QD p.o.): 1.2+/−0.7 | MMS +/− SD (1 mg/kg QD p.o.): 2.70+/−0.72 | Median Day of Onset (1 mg/kg QD p.o.): 11 days and 11.0 days | End % body weight +/− SD (1 mg/kg QD p.o.): 99.0+/−7.4% | End score +/− SD (1 mg/kg QD p.o.): 1.40+/−0.81 | Mean day of EAE onset (1 mg/kg QD p.o.): 12.5 ± 1.0 days | MMS +/− SD (3 mg/kg QD p.o.): 3.40+/−0.21 | Median Day of Onset (3 mg/kg QD p.o.): 12 days and 12.0 days | End % body weight +/− SD (3 mg/kg QD p.o.): 87.7+/−6.4% | End score +/− SD (3 mg/kg QD p.o.): 2.65+/−0.67 | Mean day of EAE onset (3 mg/kg QD p.o.): 12.1 ± 0.7 days | Apoptotic cells, average per section+/−SD (10 mg/kg QD p.o.): 2.2+/−1.0 | Demyelination score (H&E sections), average per section+/−SD (10 mg/kg QD p.o.): 1.9+/−0.8 | MMS +/− SD (10 mg/kg QD p.o.): 2.55+/−0.76 | Median Day of Onset (10 mg/kg QD p.o.): 14 days and 14.0 days | End % body weight +/− SD (10 mg/kg QD p.o.): 95.6+/−8.5% | End score +/− SD (10 mg/kg QD p.o.): 1.65+/−0.85 | Mean day of EAE onset (10 mg/kg QD p.o.): 14.4 ± 1.5 days | Inflammatory foci +/− SD (10 mg/kg QD p.o.): 5.2+/−3.2 | Demyelination (LFB) +/− SD (10 mg/kg QD p.o.): 1.6+/−0.8
